Values quoted from earlier work, collected in patent publication US6627219B2, “Oily capsule preparation and the method for preparing same” (Pharmaceutical Industry Technology and Development Center, priority 2000, dated 2003).
Read-outs that look alike come from different tables or passages of the source.

How the values were obtained:
[1] = not given; remark: listed apart in the source

COc1ccc2[nH]c([S+]([O-])Cc3ncc(C)c(OC)c3C)nc2c1 (stereo not drawn) [Omeprazole, 5-methoxy-2(((4-methoxy-3,5-dimethyl-2-pyridinyl)methyl)sulfinyl)1H-benzimidazole]
stability (basic medium of a pH higher than 7): stable | stability (neutral or acid medium): easily degraded or denatured | solubility in water [1]: hardly soluble in water
